Drawing on patent US20160176867A1, “MODIFIED BET-PROTEIN-INHIBITING DIHYDROQUINOXALINONES AND DIHYDROPYRIDOPYRAZINONES” (BAYER PHARMA AKTIENGESELLSCHAFT, priority 2013, published 2016), this text covers IC50 for 15 compounds.

The test system of assay [1] is MOLP-8 cells. The assay is described as follows: Cell proliferation assay (alamarBlue), MOLP-8. It counts as cell-based. The note with it: Homo sapiens; MOLP-8 (multiple myeloma), 120 hours. The procedure:
(§1) In accordance with the invention, the ability of the substances to inhibit cell proliferation was determined. Cell viability was determined by means of the alamarBlue® reagent (Invitrogen) in a Victor X3 Multilabel Reader (Perkin Elmer). The excitation wavelength was 530 nm and the emission wavelength […].
The MOLP-8 cells (DSMZ, ACC 569) were sown at a concentration of 4000 cells/well in 100 μl of growth medium (RPMI1640, 20% FCS) on 96-well microtitre plates.
(§2) After overnight incubation at 37° C., the fluorescence values were determined (CI values). Then the plates were treated with various substance dilutions (1E-5 M, 3E-6 M, 1E-6 M, 3E-7 M, 1E-7 M, 3E-8 M, 1E-8 M) and incubated at 37° C. over 96 hours (MOLM-13, B16F10, CHL-1 cells) or 120 hours (MOLP-8 cells). Subsequently, the fluorescence values were determined (CO values). For the data analysis, the CI values were subtracted from the CO values and the results were compared between cells which had been treated with various dilutions of the substance or only with buffer solution. The IC50 values (substance concentration needed for 50% inhibition of cell proliferation) were calculated therefrom.

Assay [2] concerns B16F10 cells. The assay can be described thus: Cell proliferation assay (alamarBlue), B16F10. The note with it: Mus musculus, B16-F10; B16F10 (melanoma, BRAF wild-type), 96 hours. It counts as cell-based. The procedure: as §1
The B16F10 cells (ATCC, CRL-6475) were sown at a concentration of 300-500 cells/well in 100 μl of growth medium (DMEM with phenol red, 10% FCS) on 96-well microtitre plates.
as §2
In general terms: Resazurin is reduced to fluorescent resorufin, in cell work by metabolically active cells.

Assay [3] has as its system MOLM-13 cells. The assay can be described thus: Cell proliferation assay (alamarBlue), MOLM-13. Type of assay: cell-based. The note with it: Homo sapiens; MOLM-13 (acute myeloid leukaemia), 96 hours. The procedure:
as §1
The MOLM-13 cells (DSMZ, ACC 554) were sown at a concentration of 4000 cells/well in 100 μl of growth medium (RPMI1640, 10% FCS) on 96-well microtitre plates.
as §2

In assay [4] the target is T1, BRD4 bromo domain 2 [BRD4(2)] (Homo sapiens, UniProt O60885).
T1 construct: N-terminally His6-tagged BRD4(2) (amino acids 357-445); made in house; host or cells: E. coli
The assay can be described thus: BRD4/acetylated peptide H4 binding assay (TR-FRET), BRD4 bromo domain 2. Particulars: inhibition of BRD4(2)/Ac-H4 peptide interaction. In a few lines:
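IC50 comes from a 4-parameter fit over 0.1 nM–20 μM in duplicate, normalised to DMSO and no-protein controls. TR-FRET (Eu-streptavidin/anti-His-XL665) tracks His-tagged BRD4(2) 357-445 at 100 nM binding Ac-H4 peptide in HEPES pH 7.5 buffer. Incubation was 1 h at 22 °C, then at 4 °C ≥3 h up to overnight.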
(In general: TR-FRET usually uses a lanthanide donor and a delayed reading to cut background.)

Usually IC50 stands for the concentration needed to halve the response being measured. Read a low IC50 as greater potency in that assay. `C[C@@H]1C(=O)N(C)c2ccc(Nc3cccc(C(=O)NC4CCN(C)CC4)c3)nc2N1C1CCOCC1` [Example 13, 3-{[(3R)-1,3-Dimethyl-2-oxo-4-(tetrahydro-2H-pyran-4-yl)-1,2,3,4-tetrahydropyrido[2,3-b]pyrazin-6-yl]amino}-N-(1-methylpiperidin-4-yl)benzamide]: the IC50 in assay [1] came out at 306 nM; in assay [2], 840 nM; in assay [3], 697 nM; in assay [4], 218 nM.
For the compound `C[C@@H]1C(=O)N(C)c2ccc(Nc3cccc(C(=O)N[C@H]4CC[C@H](N5CCN(CC6CC6)CC5)CC4)c3)nc2N1C1CCOCC1` [Example 14, N-{trans-4-[4-(Cyclopropylmethyl)piperazin-1-yl]cyclohexyl}-3-{[(3R)-1,3-dimethyl-2-oxo-4-(tetrahydro-2H-pyran-4-yl)-1,2,3,4-tetrahydropyrido[2,3-b]pyrazin-6-yl]amino}benzamide], the IC50 in assay [1] came out at 240 nM; in assay [2], 809 nM; in assay [3], 343 nM; in assay [4] it was 170 nM.
In the case of `C[C@@H]1C(=O)N(C)c2ccc(Nc3cccc(C(=O)N4CCN(C)CC4)c3)nc2N1C1CCOCC1` [Example 15, (3R)-1,3-Dimethyl-6-({3-[(4-methylpiperazin-1-yl)carbonyl]phenyl}amino)-4-(tetrahydro-2H-pyran-4-yl)-3,4-dihydropyrido[2,3-b]pyrazin-2(1H)-one], the IC50 is 313 nM in assay [1], 1080 nM in assay [2], 511 nM in assay [3] and 196 nM in assay [4].
In the case of `COc1ccc(C(=O)NC2CCN(C)CC2)cc1Nc1ccc2c(n1)N(C1CCOCC1)[C@H](C)C(=O)N2C` [Example 16, 3-{[(3R)-1,3-Dimethyl-2-oxo-4-(tetrahydro-2H-pyran-4-yl)-1,2,3,4-tetrahydropyrido[2,3-b]pyrazin-6-yl]amino}-4-methoxy-N-(1-methylpiperidin-4-yl)benzamide], the IC50 in assay [1] worked out at 306 nM; in assay [2], 1140 nM; in assay [3], 679 nM; in assay [4], 174 nM.
`C[C@@H]1C(=O)N(C)c2ccc(Nc3cccc(S(=O)(=O)NC4CCN(C)CC4)c3)nc2N1C1CCOCC1` [Example 20, 3-{[(3R)-1,3-Dimethyl-2-oxo-4-(tetrahydro-2H-pyran-4-yl)-1,2,3,4-tetrahydropyrido[2,3-b]pyrazin-6-yl]amino}-N-(1-methylpiperidin-4-yl)benzenesulphonamide]: the half-maximal inhibitory concentration (IC50) was found to be 190 nM in assay [1], 556 nM in assay [2], 175 nM in assay [3] and 52 nM in assay [4].
With `C[C@@H]1C(=O)N(C)c2ccc(Nc3cccc(S(=O)(=O)NCCN(C)C)c3)nc2N1C1CCOCC1` [Example 21], the IC50 in assay [1] came out at 175 nM; in assay [2], 626 nM; in assay [3], 237 nM; in assay [4], 53 nM.
For the compound `CCNS(=O)(=O)c1cccc(Nc2ccc3c(n2)N(C2CCOCC2)[C@H](C)C(=O)N3C)c1` [Example 23, 3-{[(3R)-1,3-dimethyl-2-oxo-4-(tetrahydro-2H-pyran-4-yl)-1,2,3,4-tetrahydropyrido[2,3-b]pyrazin-6-yl]amino}-N-ethylbenzenesulphonamide], the half-inhibitory concentration (IC50) in assay [1] was 37 nM; in assay [2], 44 nM; in assay [3], 47 nM; in assay [4], 39 nM.
With `C[C@@H]1C(=O)N(C)c2ccc(Nc3cccc(S(=O)(=O)N4CCCC4)c3)nc2N1C1CCN(C)CC1` [Example 24, (3R)-1,3-Dimethyl-4-(1-methylpiperidin-4-yl)-6-{[3-(pyrrolidin-1-ylsulphonyl)phenyl]amino}-3,4-dihydropyrido[2,3-b]pyrazin-2(1H)-one], the IC50 in assay [1] is 11 nM; in assay [2], 112 nM; in assay [3] it was 20 nM; in assay [4] it was 55 nM.
In the case of `COc1ccc(S(=O)(=O)N2CCOCC2)cc1Nc1ccc2c(n1)N(C1CCN(C)CC1)[C@H](C)C(=O)N2C` [Example 25, (3R)-6-{[2-Methoxy-5-(morpholin-4-ylsulphonyl)phenyl]amino}-1,3-dimethyl-4-(1-methylpiperidin-4-yl)-3,4-dihydropyrido[2,3-b]pyrazin-2(1H)-one], the IC50 in assay [1] is 11 nM; in assay [2] it was 43 nM; in assay [3], 18 nM; in assay [4], 56 nM.
Take `C[C@@H]1C(=O)N(C)c2ccc(Nc3cccc(S(=O)(=O)NC4CC4)c3)nc2N1C1CCOCC1` [Example 26, N-Cyclopropyl-3-{[(3R)-1,3-dimethyl-2-oxo-4-(tetrahydro-2H-pyran-4-yl)-1,2,3,4-tetrahydropyrido[2,3-b]pyrazin-6-yl]amino}benzenesulphonamide]: the IC50 in assay [1] was determined as 24 nM; in assay [2], 25 nM; in assay [3], 32 nM; in assay [4] it was 31 nM.
As to `C[C@@H]1C(=O)N(C)c2ccc(Nc3cccc(S(=O)(=O)N4CCCC4)c3)nc2N1C1CCOCC1` [Example 27, (3R)-1,3-Dimethyl-6-{[3-(pyrrolidin-1-ylsulphonyl)phenyl]amino}-4-(tetrahydro-2H-pyran-4-yl)-3,4-dihydropyrido[2,3-b]pyrazin-2(1H)-one], the concentration for half-maximal inhibition (IC50) in assay [1] worked out at 30 nM; in assay [2], 60 nM; in assay [3] it was 41 nM; in assay [4], 40 nM.
As for `COc1ccc(S(=O)(=O)N2CCOCC2)cc1Nc1ccc2c(n1)N(C1CCOCC1)[C@H](C)C(=O)N2C` [Example 28, (3R)-6-{[2-Methoxy-5-(morpholin-4-ylsulphonyl)phenyl]amino}-1,3-dimethyl-4-(tetrahydro-2H-pyran-4-yl)-3,4-dihydropyrido[2,3-b]pyrazin-2(1H)-one], the IC50 turned out to be 18 nM in assay [1], 30 nM in assay [2], 21 nM in assay [3] and 53 nM in assay [4].
Regarding `C[C@@H]1C(=O)N(C)c2ccc(Nc3cccc(S(=O)(=O)N4CC(F)(F)C4)c3)nc2N1C1CCN(C)CC1` [Example 29, (3R)-6-({3-[(3,3-Difluoroazetidin-1-yl)sulphonyl]phenyl}amino)-1,3-dimethyl-4-(1-methylpiperidin-4-yl)-3,4-dihydropyrido[2,3-b]pyrazin-2(1H)-one], the IC50 worked out at 41 nM in assay [1], 230 nM in assay [2], 64 nM in assay [3] and 64 nM in assay [4].
For the compound `COc1ccc(S(=O)(=O)N2CC3(COC3)C2)cc1Nc1ccc2c(n1)N(C1CCOCC1)[C@H](C)C(=O)N2C` [Example 30, (3R)-6-{[2-Methoxy-5-(2-oxa-6-azaspiro[3.3]hept-6-ylsulphonyl)phenyl]amino}-1,3-dimethyl-4-(tetrahydro-2H-pyran-4-yl)-3,4-dihydropyrido[2,3-b]pyrazin-2(1H)-one], the IC50 is 96 nM in assay [1], 165 nM in assay [2], 152 nM in assay [3] and 58 nM in assay [4].
For `C[C@@H]1C(=O)N(C)c2ccc(Nc3cccc(S(=O)(=O)NC4CCN(C)CC4)c3)nc2N1Cc1ccccc1` [Example 33, 3-{[(3R)-4-benzyl-1,3-dimethyl-2-oxo-1,2,3,4-tetrahydropyrido[2,3-b]pyrazin-6-yl]amino}-N-(1-methylpiperidin-4-yl)benzenesulphonamide] the same measures were 12 nM, 157 nM, 16 nM and 76 nM.
